{"source": "patent US12648941B2", "about": "“Piperidine urea derivatives for use as inotropic agents” (Helsinn Healthcare SA, priority 2021, dated 2026)", "key": {"[1]": {"test_system": "cardiomyocytes isolated from hearts of SHAM mice", "assay": "Intracellular Ca2+ transients (Fluo-3, confocal line scan)", "assay_type": "cell-based, mouse", "experimental": "Cardiomyocytes were isolated freshly from cardiac ventricles separately from SHAM and HF mice following the protocol developed by the Alliance for Cellular Signalling (AfCS Procedure Protocol ID PP00000125). From each of the 5 SHAM and 3 HF hearts a cell suspension was made and divided into 10 aliquots each, for a total of 50 aliquots from SHAM and 30 aliquots from HF hearts. These aliquots were treated with vehicle, AC01/HM01 or D-Lys3-GHPR-6+AC01/HM01 as stated and used for the subsequent physiological and biochemical experiments.\n(§1) AC01/HM01 was suspended in phosphate buffer saline solution (PBS: in mM: NaCl 137, KCl 7, Na2HPO4 10, KH2PO4 […]) and diluted to obtain 3 different concentrations: 0.2, 0.5 or 1 μM in Tyrode solution. We used a concentration range within 0.2-1 μM to ensure that the receptor was activated. […] Prior to contractility and Ca^2+ signaling measurements and biochemical assays, cardiomyocyte suspensions from SHAM and HF hearts were randomized to 3 types of treatments: vehicle, AC01/HM01, or D-Lys3-GHPR-6+AC01/HM01. The treatment with different agents occurred for 15 minutes at room temperature. Some cell suspension aliquots were flash frozen in liquid N2 and stored at −80° C. for later biochemistry analyses. All the experiments were conducted blinded regarding the treatment of cardiomyocytes.\nFresh isolated cardiomyocytes were aliquoted in 1.5 ml tubes and incubated with a cell permeable form of fluorescent Ca2+ indicator Fluo-3 AM followed by washing for >5 min. […] ImageJ software (open source software developed by NIH, Bethesda, USA) was used to quantify changes in fluorescence (Ca2+ transients) and contractility of single cardiomyocytes.\nCa^2+ transients were measured using a confocal microscope (Biorad) in line scan mode. […] The fluorescent signal (F/Fo) was calculated as the ratio between resting fluorescence before the start of the Ca^2+ transient (FO) and the peak fluorescence (F) of the Ca^2+ transient."}, "Protein kinase A (PKA)": {"test_system": "Protein kinase A (PKA)", "assay": "PKA activity assay in cardiomyocytes (ELISA-based kit)", "assay_type": "cell-based, mouse", "conditions": "isolated cardiomyocytes; 1 μM", "experimental": "as §1\nElisa-based PKA kinase activity assay kit (ab139435, Abcam, Cambridge, UK) was employed to determine PKA activity in cardiomyocytes. Aliquots of frozen cardiomyocytes were thawed and mixed with a lysis buffer containing (mM) the following: 20 MOPS, 50 β-glycerolphosphate, 5 EGTA, 2 EDTA, 1 benzamidine, 1 sodium orthovanadate, 1% NP40, 1 DTT, complete protease inhibitor cocktail (Roche Diagnostics, West Sussex, UK) and phosphatase inhibitor cocktail 3 (Sigma, Gillingham, UK). Approximately 2 μg of protein of each sample were assayed according to the manufacturer's instructions 27."}, "prolactin": {"test_system": "prolactin", "assay": "Phase 1 SAD pharmacodynamics, serum prolactin (ELISA)", "assay_type": "in vivo, human", "experimental": "Blood samples for determination of growth hormone (GH), insulin-like growth factor-1 (IGF-1), adrenocorticotropic hormone (ACTH), prolactin, cortisol and aldosterone in serum at pre-dose and 0.5, 1, 2, 3, 4, 6 and 24 hours post-dose were collected by venous puncture. All biomarkers were determined using enzyme linked immunosorbent assays (ELISA). Simplified nutritional appetite questionnaire based on appetite assessments at Day −1 after dinner, and on Day 1 pre-dose, 1, 2, 4, 8, and 24 hours after dosing. Stool diary starting on Day 1 until discharge on Day 4."}, "[2]": {"assay": "Phase 1 SAD, safety and tolerability", "assay_type": "in vivo, human", "experimental": "Single-center, randomized, double-blind, placebo-controlled, single ascending dose (SAD) study. Screening examinations were performed within 28 days prior to dosing. Eligible subjects returned to the study center in the morning of Day-1 and remained in-patient until discharge at 72 hours after dosing (morning of Day 4) if there were no safety issues. The oral dose was administered in the morning of Day 1. Subjects returned to the clinic 7 days after treatment, in the morning of Day 8 (±1 day), for the safety assessments. Adverse events (AEs), vital signs (blood pressure, pulse rate and body temperature), 12-lead ECG, Holter-ECG, physical examination (PE), and laboratory tests (hematology, clinical chemistry, and urinalysis) assessed during screening and several times throughout the study."}}, "note": "Entries after “also recorded” stand apart in the source; their conditions may differ.", "data": [{"smiles": "COc1ccc([C@H](C)NC(=O)N(C)[C@@H]2CCN(C)CC2(C)C)c(Cl)c1Cl.Cl", "note": "[AC01/HM01, 1-[(1S)-1-(2,3-dichloro-4-methoxyphenyl)ethyl]-3-methyl-3-[(4R)-1-methyl-3,3-dimethyl-4-piperidyl]-urea]", "values": [{"measurement": "Ca2+ transient amplitude vs vehicle", "setting": "[1]; 1 μM, with D-Lys 3 GHRP-6 pretreatment", "result": "did not have any impact on Ca^2+ transient amplitudes; also recorded: did not change the Ca^2+ transient amplitude"}, {"measurement": "Ca2+ transient amplitude vs vehicle", "setting": "[1]; 1 μM, without D-Lys3 pretreatment", "result": "did not have any impact on Ca^2+ transient amplitudes; also recorded: did not change the Ca^2+ transient amplitude"}, {"measurement": "Ca2+ transient amplitude vs vehicle", "setting": "[1]; all tested concentrations (0.2, 0.5, 1 μM)", "result": "no significant change in Ca^2+ transient amplitude; also recorded: did not cause alteration of Ca^2+ transient amplitudes"}, {"measurement": "PKA activity vs vehicle", "setting": "Protein kinase A (PKA)", "result": "decreased; also recorded: reduction of PKA activity"}, {"measurement": "prolactin increase, comparison of doses", "setting": "prolactin; 10 mg vs 1.0 mg", "result": "higher after 10 mg compared to 1.0 mg"}, {"measurement": "concentrations of prolactin", "setting": "prolactin; 1.0 and 10 mg HM01", "result": "rapidly increased above baseline values"}, {"measurement": "TEAEs reported", "setting": "[2]; 0.1 mg", "result": "no TEAEs"}, {"measurement": "number of TEAEs", "setting": "[2]; 0.3 mg", "result": 5, "unit": "TEAEs"}, {"measurement": "number of TEAEs", "setting": "[2]; 1.0 mg", "result": 7, "unit": "TEAEs"}, {"measurement": "subjects reporting TEAEs of moderate intensity", "setting": "[2]; 1.0 mg, hot flush", "result": 1, "unit": "subject"}, {"measurement": "number of TEAEs", "setting": "[2]; 10 mg", "result": 19, "unit": "TEAEs"}, {"measurement": "subjects reporting TEAEs of moderate intensity", "setting": "[2]; 10 mg, sinus bradycardia", "result": 1, "unit": "subject"}, {"measurement": "number of subjects reporting TEAEs and number of TEAEs, dose dependence", "setting": "[2]; 0.1-10 mg single oral dose", "result": "increased dose-dependently"}, {"measurement": "mean systolic and diastolic blood pressure and body temperature", "setting": "[2]; after dosing / between treatment groups", "result": "no clinically relevant changes"}, {"measurement": "intensity of TEAEs", "setting": "[2]; all dose groups", "result": "Most TEAEs were of mild intensity"}, {"measurement": "laboratory parameters, differences between dosing groups", "setting": "[2]; in vivo", "result": "no clinically relevant differences"}, {"measurement": "most frequently reported TEAEs", "setting": "[2]; started mainly shortly after dosing, short duration", "result": "nervous system disorder (mainly headache) and cardiac disorders (mainly sinus bradycardia)"}]}]}
